pIC50: −log10 of the molar value.
Test system: HCT116
Assay: In vitro cytotoxicity measured by the cell colony formation assay
Assay type: cell-based
Details: HCT116 cells, 72 h drug incubation, colonies counted after 7 days; ID50 = drug concentration producing 50% inhibition of colony formation; read-out: IN VITRO ID 50 (nm) HCT116

`CC(=O)O[C@@]12CO[C@@H]1C[C@H](O)[C@@]1(C)C(=O)[C@H](OC(=O)C=C(C)C)C3=C(C)[C@@H](OC(=O)[C@H](O)[C@@H](NC(=O)OC(C)(C)C)c4ccncc4)C[C@@](O)([C@@H](OC(=O)c4ccccc4)C12)C3(C)C` (stereo partly shown) [Compound 2472] was tested. Which pIC50 did it give?
Its pIC50 is > 9.00.

With `CC(=O)O[C@@]12CO[C@@H]1C[C@H](O)[C@@]1(C)C(=O)[C@H](OC(=O)C=C(C)C)C3=C(C)[C@@H](OC(=O)[C@H](O)[C@@H](NC(=O)OC(C)(C)C)c4ccco4)C[C@@](O)([C@@H](OC(=O)c4ccccc4)C12)C3(C)C` (stereo partly shown) [Compound 2488] as the molecule, how does the pIC50 read?
Its pIC50 is > 9.00.

`CC(=O)O[C@@]12CO[C@@H]1C[C@H](O)[C@@]1(C)C(=O)[C@H](OC(=O)C=C(C)C)C3=C(C)[C@@H](OC(=O)[C@H](O)[C@@H](NC(=O)OC(C)(C)C)c4ccoc4)C[C@@](O)([C@@H](OC(=O)c4ccccc4)C12)C3(C)C` (stereo partly shown) [Compound 2499] was tested. Which pIC50 did it give?
Its pIC50 is > 9.00.

`CC(=O)O[C@@]12CO[C@@H]1C[C@H](O)[C@@]1(C)C(=O)[C@H](OC(=O)C=C(C)C)C3=C(C)[C@@H](OC(=O)[C@H](O)[C@@H](NC(=O)OC(C)(C)C)c4cccs4)C[C@@](O)([C@@H](OC(=O)c4ccccc4)C12)C3(C)C` (stereo partly shown) [Compound 2503] was tested. Which pIC50 did it give?
Its pIC50 is > 9.00.

`CC(=O)O[C@@]12CO[C@@H]1C[C@H](O)[C@@]1(C)C(=O)[C@H](OC(=O)C=C(C)C)C3=C(C)[C@@H](OC(=O)[C@H](O)[C@@H](NC(=O)OC(C)(C)C)c4ccsc4)C[C@@](O)([C@@H](OC(=O)c4ccccc4)C12)C3(C)C` (stereo partly shown) [Compound 2511] was tested. Which pIC50 did it give?
The pIC50 was > 9.00.

How did the pIC50 turn out when `CC(=O)O[C@@]12CO[C@@H]1C[C@H](O)[C@@]1(C)C(=O)[C@H](OC(=O)C=C(C)C)C3=C(C)[C@@H](OC(=O)[C@H](O)[C@@H](NC(=O)OC(C)(C)C)c4ccccc4)C[C@@](O)([C@@H](OC(=O)c4ccccc4)C12)C3(C)C` (stereo partly shown) [Compound 2520] was run?
The pIC50 was > 8.00.

With `CC(=O)O[C@@]12CO[C@@H]1C[C@H](O)[C@@]1(C)C(=O)[C@H](OC(=O)C3CC3)C3=C(C)[C@@H](OC(=O)[C@H](O)[C@@H](NC(=O)OC(C)(C)C)c4ccoc4)C[C@@](O)([C@@H](OC(=O)c4ccccc4)C12)C3(C)C` (stereo partly shown) [Compound 2781] as the molecule, how does the pIC50 read?
The pIC50 was > 9.00.

How did the pIC50 turn out when `CC(=O)O[C@@]12CO[C@@H]1C[C@H](O)[C@@]1(C)C(=O)[C@H](OC(=O)C3CC3)C3=C(C)[C@@H](OC(=O)[C@H](O)[C@@H](NC(=O)OC(C)(C)C)c4ccsc4)C[C@@](O)([C@@H](OC(=O)c4ccccc4)C12)C3(C)C` (stereo partly shown) [Compound 2794] was run?
The pIC50 was > 9.00.

How did the pIC50 turn out when `CC(=O)O[C@@]12CO[C@@H]1C[C@H](O)[C@@]1(C)C(=O)[C@H](OC(=O)C3CC3)C3=C(C)[C@@H](OC(=O)[C@H](O)[C@@H](NC(=O)OC(C)(C)C)c4ccccn4)C[C@@](O)([C@@H](OC(=O)c4ccccc4)C12)C3(C)C` (stereo partly shown) [Compound 2802] was run?
The pIC50 was > 9.00.

`CC(=O)O[C@@]12CO[C@@H]1C[C@H](O)[C@@]1(C)C(=O)[C@H](OC(=O)C3CC3)C3=C(C)[C@@H](OC(=O)[C@H](O)[C@@H](NC(=O)OC(C)(C)C)c4ccncc4)C[C@@](O)([C@@H](OC(=O)c4ccccc4)C12)C3(C)C` (stereo partly shown) [Compound 2813] was tested. Which pIC50 did it give?
The pIC50 was > 9.00.

With `CC(=O)O[C@@]12CO[C@@H]1C[C@H](O)[C@@]1(C)C(=O)[C@H](OC(=O)C3CC3)C3=C(C)[C@@H](OC(=O)[C@H](O)[C@@H](NC(=O)c4ccccc4)c4ccoc4)C[C@@](O)([C@@H](OC(=O)c4ccccc4)C12)C3(C)C` (stereo partly shown) [Compound 2826] as the molecule, how does the pIC50 read?
The pIC50 was > 9.00.

With `CC(=O)O[C@@]12CO[C@@H]1C[C@H](O)[C@@]1(C)C(=O)[C@H](OC(=O)C3CC3)C3=C(C)[C@@H](OC(=O)[C@H](O)[C@@H](NC(=O)c4ccccc4)c4ccsc4)C[C@@](O)([C@@H](OC(=O)c4ccccc4)C12)C3(C)C` (stereo partly shown) [Compound 2838] as the molecule, how does the pIC50 read?
The pIC50 was > 9.00.

How did the pIC50 turn out when `CC(=O)O[C@@]12CO[C@@H]1C[C@H](O)[C@@]1(C)C(=O)[C@H](OC(=O)C3CC3)C3=C(C)[C@@H](OC(=O)[C@H](O)[C@@H](NC(=O)c4ccccc4)c4ccccn4)C[C@@](O)([C@@H](OC(=O)c4ccccc4)C12)C3(C)C` (stereo partly shown) [Compound 2844] was run?
The pIC50 was > 8.00.
